# Source: PMC1208959 (Virology Journal, 2005)
smiles,measurement,setting,value
CC[C@H](C)[C@H](NC(=O)[C@H](Cc1ccc(O)cc1)NC(=O)[C@H](CC(=O)O)NC(=O)[C@H](CCCCN)NC(=O)[C@H](CO)NC(=O)[C@H](CCC(N)=O)NC(=O)[C@H](CCC(N)=O)NC(=O)[C@H](CC(C)C)NC(=O)[C@H](CO)NC(=O)[C@H](CCC(N)=O)NC(=O)[C@H](CC(N)=O)NC(=O)[C@H](CCSC)NC(=O)[C@H](CO)NC(=O)[C@H](CO)NC(=O)[C@@H](NC(=O)[C@H](CCC(N)=O)NC(=O)[C@H](CO)NC(=O)[C@H](CO)NC(=O)[C@@H](NC(=O)[C@H](CC(=O)O)NC(=O)[C@@H](NC(=O)[C@H](CCCCN)NC(=O)CCOCCOCCOCCOCCOCCOCCOCCOCCOCCOCCOCCOCCNC(C)=O)C(C)C)[C@@H](C)CC)[C@@H](C)CC)C(=O)N[C@@H](CCCCN)C(=O)N[C@@H](CCC(=O)O)C(=O)N[C@@H](C)C(=O)N[C@@H](CCC(N)=O)C(=O)N[C@@H](CCCNC(=N)N)C(=O)N[C@@H](CC(C)C)C(=O)N[C@@H](CC(C)C)C(=O)N[C@@H](CC(=O)O)C(=O)N[C@H](C(=O)N[C@H](C(=O)N[C@@H](CC(N)=O)C(=O)N1CCC[C@H]1C(=O)N[C@@H](CO)C(=O)N[C@@H](CC(C)C)C(N)=O)C(C)C)[C@@H](C)O [N-PEG NiV FC2],number of syncytia per cell monolayer (in words),live NiV,largely unchanged
same,syncytial morphology and size (in words),live NiV,dramatic and robust reduction in syncytial size
same,number of syncytia per cell monolayer (in words),live HeV,largely unchanged
same,syncytial morphology and size (in words),live HeV,dramatic and robust reduction in syncytial size
